34 molecules from ChEMBL document CHEMBL6071140, “Ocotillol Derivatives Mitigate Retinal Ischemia-Reperfusion Injury by Regulating the Keap1/Nrf2/ARE Signaling Pathway” (J Med Chem, 2024) can be followed below.

Data set [1] is described as follows: Cytotoxicity against rat R28 cells assessed as decrease in cellular ATP content incubated for 24 hrs by CellTiter-Lumi Plus cell viability assay. As to conditions: r28, 24 h. It is filed as toxicity, cell-based.
In data set [2] the test system is R28. Briefly: Antioxidant activity in rat R28 cells assessed as protection against OGD induced cytotoxicity by measuring cellular ATP level preincubated under OGD condition for 8 hrs followed by reoxygenation for 4 hrs by CellTiter-Lumi Plus cell viability assay. The format is functional, cell-based. As to conditions: dose 0.1-40 µM, time 12.0 hrs.

Turning to `CC(C)(O)[C@H]1CC[C@@](C)([C@H]2CC[C@]3(C)[C@@H]2[C@H](O)C[C@@H]2[C@@]4(C)Cc5sc(NC(=O)CCCSSCCCC(=O)O)nc5C(C)(C)[C@@H]4CC[C@]23C)O1`, the Activity entry in data set [1] is “Non-Toxic”.
Turning to `CC(C)(O)[C@H]1CC[C@@](C)([C@H]2CC[C@]3(C)[C@@H]2[C@H](O)C[C@@H]2[C@@]4(C)Cc5c(C(=O)NCCCCN)noc5C(C)(C)[C@@H]4CC[C@]23C)O1`, in data set [1], the Activity entry is “Non-Toxic”.
For `CC(C)(O)[C@@H]1CC[C@@](C)([C@H]2CC[C@]3(C)[C@@H]2[C@H](O)C[C@@H]2[C@@]4(C)CC[C@H](OC(=O)CCC(=O)O)C(C)(C)[C@@H]4CC[C@]23C)O1`, in data set [1], the Activity result was “Non-Toxic”.
For the molecule `CC(C)(O)[C@H]1CC[C@@](C)([C@H]2CC[C@]3(C)[C@@H]2[C@H](O)C[C@@H]2[C@@]4(C)CC[C@H](OC(=O)CCC(=O)Nc5ccc(N)cc5)C(C)(C)[C@@H]4CC[C@]23C)O1`, the Activity result in data set [1] is reported as “Non-Toxic”.
The same measure, in the same setting: with `CC(C)(O)[C@@H]1CC[C@@](C)([C@H]2CC[C@]3(C)[C@@H]2[C@H](O)C[C@@H]2[C@@]4(C)Cc5c(C(=O)O)noc5C(C)(C)[C@@H]4CC[C@]23C)O1` the entry was “Non-Toxic”; with `CC(C)(O)[C@@H]1CC[C@@](C)([C@H]2CC[C@]3(C)[C@@H]2[C@H](O)C[C@@H]2[C@@]4(C)CC[C@H](O)C(C)(C)[C@@H]4CC[C@]23C)O1`, “Non-Toxic”.
Turning to `CC(C)(O)[C@H]1CC[C@@](C)([C@H]2CC[C@]3(C)[C@@H]2[C@H](O)C[C@@H]2[C@@]4(C)CC[C@H](O)C(C)(C)[C@@H]4CC[C@]23C)O1`, the Activity result in data set [1] was “Non-Toxic”; in data set [2] it was “Dose-Dependent Effect”.
Turning to `CCOC(=O)c1noc2c1C[C@]1(C)[C@H]3C[C@@H](O)[C@@H]4[C@@H]([C@]5(C)CC[C@@H](C(C)(C)O)O5)CC[C@@]4(C)[C@]3(C)CC[C@H]1C2(C)C`, the Activity entry in data set [1] is “Non-Toxic”.
Consider `CC(C)(O)[C@H]1CC[C@@](C)([C@H]2CC[C@]3(C)[C@@H]2[C@H](O)C[C@@H]2[C@@]4(C)Cc5sc(NC(=O)CCCC(=O)O)nc5C(C)(C)[C@@H]4CC[C@]23C)O1`, for which the Activity result in data set [1] was “Non-Toxic”.
On the same count and under the same terms, with `CC(C)(O)[C@@H]1CC[C@@](C)([C@H]2CC[C@]3(C)[C@@H]2[C@H](O)C[C@@H]2[C@@]4(C)CC[C@H](OC(=O)CCC(=O)NCCCN)C(C)(C)[C@@H]4CC[C@]23C)O1` the entry was “Non-Toxic”; with `CC(C)(O)[C@@H]1CC[C@@](C)([C@H]2CC[C@]3(C)[C@@H]2[C@H](O)C[C@@H]2[C@@]4(C)Cc5sc(NC(=O)CCCSSCCCC(=O)O)nc5C(C)(C)[C@@H]4CC[C@]23C)O1`, “Non-Toxic”.
Still for that read-out and setting: with `CC(C)(O)[C@H]1CC[C@@](C)([C@H]2CC[C@]3(C)[C@@H]2[C@H](O)C[C@@H]2[C@@]4(C)CC[C@H](OC(=O)CCC(=O)Nc5ccccc5N)C(C)(C)[C@@H]4CC[C@]23C)O1` the entry was “Non-Toxic”; with `CC(C)(O)[C@@H]1CC[C@@](C)([C@H]2CC[C@]3(C)[C@@H]2[C@H](O)C[C@@H]2[C@@]4(C)Cc5sc(NC(=O)CCCC(=O)O)nc5C(C)(C)[C@@H]4CC[C@]23C)O1`, “Non-Toxic”.
For the molecule `CC(C)(O)[C@@H]1CC[C@@](C)([C@H]2CC[C@]3(C)[C@@H]2[C@H](O)C[C@@H]2[C@@]4(C)Cc5sc(NC(=O)CC(=O)O)nc5C(C)(C)[C@@H]4CC[C@]23C)O1`, in data set [1], the Activity entry is on record as “Non-Toxic”.
Still for that read-out and setting: with `CC(C)(O)[C@@H]1CC[C@@](C)([C@H]2CC[C@]3(C)[C@@H]2[C@H](O)C[C@@H]2[C@@]4(C)Cc5c(C(=O)Nc6ccc(N)cc6)noc5C(C)(C)[C@@H]4CC[C@]23C)O1` the entry was “Non-Toxic”.
For `CC(C)(O)[C@@H]1CC[C@@](C)([C@H]2CC[C@]3(C)[C@@H]2[C@H](O)C[C@@H]2[C@@]4(C)Cc5sc(NC(=O)c6ccccc6C(=O)O)nc5C(C)(C)[C@@H]4CC[C@]23C)O1`, the Activity result in data set [1] is listed as “Non-Toxic”.
For `CC(C)(O)[C@H]1CC[C@@](C)([C@H]2CC[C@]3(C)[C@@H]2[C@H](O)C[C@@H]2[C@@]4(C)Cc5sc(NC(=O)c6ccccc6C(=O)O)nc5C(C)(C)[C@@H]4CC[C@]23C)O1`, the Activity result in data set [1] was “Non-Toxic”.
As to `CC(C)(O)[C@H]1CC[C@@](C)([C@H]2CC[C@]3(C)[C@@H]2[C@H](O)C[C@@H]2[C@@]4(C)CC[C@H](OC(=O)CCC(=O)Nc5cccc(N)c5)C(C)(C)[C@@H]4CC[C@]23C)O1`, in data set [1], the Activity result is given as “Non-Toxic”.
Take `CC(C)(O)[C@@H]1CC[C@@](C)([C@H]2CC[C@]3(C)[C@@H]2[C@H](O)C[C@@H]2[C@@]4(C)Cc5c(C(=O)NCCCCCCN)noc5C(C)(C)[C@@H]4CC[C@]23C)O1`: in data set [1], the Activity entry is given as “Non-Toxic”.
Same read-out and setting: with `CCOC(=O)c1noc2c1C[C@]1(C)[C@H]3C[C@@H](O)[C@@H]4[C@@H]([C@]5(C)CC[C@H](C(C)(C)O)O5)CC[C@@]4(C)[C@]3(C)CC[C@H]1C2(C)C` the entry was “Non-Toxic”; with `CC(C)(O)[C@@H]1CC[C@@](C)([C@H]2CC[C@]3(C)[C@@H]2[C@H](O)C[C@@H]2[C@@]4(C)CC[C@H](OC(=O)CCC(=O)Nc5cccc(N)c5)C(C)(C)[C@@H]4CC[C@]23C)O1`, “Non-Toxic”.
On the same count and under the same terms, with `CC(C)(O)[C@H]1CC[C@@](C)([C@H]2CC[C@]3(C)[C@@H]2[C@H](O)C[C@@H]2[C@@]4(C)Cc5sc(NC(=O)CC(=O)O)nc5C(C)(C)[C@@H]4CC[C@]23C)O1` the entry was “Non-Toxic”; with `CC(C)(O)[C@@H]1CC[C@@](C)([C@H]2CC[C@]3(C)[C@@H]2[C@H](O)C[C@@H]2[C@@]4(C)Cc5sc(N)nc5C(C)(C)[C@@H]4CC[C@]23C)O1`, “Non-Toxic”; with `CC(C)(O)[C@H]1CC[C@@](C)([C@H]2CC[C@]3(C)[C@@H]2[C@H](O)C[C@@H]2[C@@]4(C)Cc5c(C(=O)NCCCCCCN)noc5C(C)(C)[C@@H]4CC[C@]23C)O1`, “Non-Toxic”.
For `CC(C)(O)[C@H]1CC[C@@](C)([C@H]2CC[C@]3(C)[C@@H]2[C@H](O)C[C@@H]2[C@@]4(C)Cc5c(C(=O)NCCCN)noc5C(C)(C)[C@@H]4CC[C@]23C)O1`, the Activity result in data set [1] is recorded as “Non-Toxic”.
With `CC(C)(O)[C@H]1CC[C@@](C)([C@H]2CC[C@]3(C)[C@@H]2[C@H](O)C[C@@H]2[C@@]4(C)CC[C@H](OC(=O)CCC(=O)O)C(C)(C)[C@@H]4CC[C@]23C)O1`, the Activity result in data set [1] is listed as “Non-Toxic”.
Same read-out and setting: with `CC(C)(O)[C@@H]1CC[C@@](C)([C@H]2CC[C@]3(C)[C@@H]2[C@H](O)C[C@@H]2[C@@]4(C)CC[C@H](OC(=O)CCC(=O)Nc5ccccc5N)C(C)(C)[C@@H]4CC[C@]23C)O1` the entry was “Non-Toxic”.
On the same count and under the same terms, with `CC(C)(O)[C@H]1CC[C@@](C)([C@H]2CC[C@]3(C)[C@@H]2[C@H](O)C[C@@H]2[C@@]4(C)Cc5c(C(=O)O)noc5C(C)(C)[C@@H]4CC[C@]23C)O1` the entry was “Non-Toxic”; with `CC(C)(O)[C@H]1CC[C@@](C)([C@H]2CC[C@]3(C)[C@@H]2[C@H](O)C[C@@H]2[C@@]4(C)Cc5c(C(=O)Nc6ccc(N)cc6)noc5C(C)(C)[C@@H]4CC[C@]23C)O1`, “Non-Toxic”; with `CC(C)(O)[C@@H]1CC[C@@](C)([C@H]2CC[C@]3(C)[C@@H]2[C@H](O)C[C@@H]2[C@@]4(C)Cc5c(C(=O)NCCCCN)noc5C(C)(C)[C@@H]4CC[C@]23C)O1`, “Non-Toxic”.
Still for that read-out and setting: with `CC(C)(O)[C@H]1CC[C@@](C)([C@H]2CC[C@]3(C)[C@@H]2[C@H](O)C[C@@H]2[C@@]4(C)Cc5sc(N)nc5C(C)(C)[C@@H]4CC[C@]23C)O1` the entry was “Non-Toxic”; with `CC(C)(O)[C@@H]1CC[C@@](C)([C@H]2CC[C@]3(C)[C@@H]2[C@H](O)C[C@@H]2[C@@]4(C)Cc5c(C(=O)NCCCN)noc5C(C)(C)[C@@H]4CC[C@]23C)O1`, “Non-Toxic”.
As for `CC(C)(O)[C@@H]1CC[C@@](C)([C@H]2CC[C@]3(C)[C@@H]2[C@H](O)C[C@@H]2[C@@]4(C)CC[C@H](OC(=O)CCC(=O)Nc5ccc(N)cc5)C(C)(C)[C@@H]4CC[C@]23C)O1`, the Activity result in data set [1] is listed as “Non-Toxic”.
With `CC(C)(O)[C@H]1CC[C@@](C)([C@H]2CC[C@]3(C)[C@@H]2[C@H](O)C[C@@H]2[C@@]4(C)CC[C@H](OC(=O)CCC(=O)NCCCN)C(C)(C)[C@@H]4CC[C@]23C)O1`, the Activity result in data set [1] is recorded as “Non-Toxic”.
